Experimental findings from US8710233B2 (Gruenenthal GmbH, priority 2005, dated 2014) are described below.

Common to all, as to type: cell-based
For assay [1], the target named is T1, vanilloid receptor 1 (VR1/TRPV1) of the rat species (Rattus norvegicus, UniProt O35433).
T1 construct: The spinal column is removed from decapitated rats; from tissue; host or cells: primary cells dissociated from rat dorsal root ganglia
Kind of assay: FLIPR Ca2+ influx assay on rat dorsal root ganglia cells (pharmacological method I). The following applies: for inhibition in percent, Ki (rat) Cap.: @ 10 μM. From the text: I. Functional Investigation of the Vanilloid Receptor 1 (VR1/TRPV1 Receptor)
The agonistic or antagonistic action of the substances to be investigated on the vanilloid receptor 1 (VR1/TRPV1) of the rat species may be determined by the following assay. According to this assay, the influx of Ca^2+ through the receptor channel is quantified with the assistance of a Ca^2+-sensitive dye (type Fluo-4, Molecular Probes Europe BV, Leiden, Netherlands) in a Fluorescent Imaging Plate Reader (FLIPR, Molecular Devices, Sunnyvale, USA).
The spinal column is removed from decapitated rats and is placed directly in cold, i.e. located in an ice bath, HBSS buffer (Hank's buffered saline solution, Gibco Invitrogen GmbH, Karlsruhe, Germany) combined with 1 vol. % (percent by volume) of an AA solution (antibiotic/antimycotic solution, PAA, Pasching, Austria). The spinal column is cut open longitudinally and removed together with fasciae from the spinal canal. The dorsal root ganglia (DRGs) are then removed and in turn stored in cold HBSS buffer combined with 1 vol. % of an AA solution. The DRGs, from which all traces of blood and spinal nerves have been removed, are in each case transferred into 500 μL of cold collagenase type 2 (PAA, Pasching, Austria) and incubated for 35 minutes at 37° C. […] Once incubation is complete, the enzyme solution is carefully removed by pipette and the DRGs, which are left behind, are in each case combined with 500 μL of complete medium.
The DRGs are in each case repeatedly suspended, drawn by means of a syringe through […], no. 12 and no. 16 cannulas and transferred into 50 mL Falcon microtubes and each tube is made up to 15 mL with complete medium. The contents of each Falcon microtube are in each case filtered through a 70 μm Falcon filter insert and centrifuged for 10 minutes at 1200 revolutions and room temperature. The resultant pellet is in each case resuspended in 250 μL of complete medium and the cell count determined.
The number of cells in the suspension is adjusted to 3×10^5 per mL and a 150 μL portion of this suspension is in each case placed in a well of the cell culture plate which has been coated as described above.
The cells are then loaded with 2 μM Fluo-4 and 0.01 vol. % Pluronic F127 (Molecular Probes Europe BV, Leiden, Netherlands) in HBSS buffer (Hank's buffered saline solution, Gibco Invitrogen GmbH, Karlsruhe, Germany) for 30 min at 37° C., washed 3× with HBSS buffer and, after a further 15 minutes' incubation at room temperature, used for Ca^2+ measurement in the FLIPR assay. […] Quantification proceeds by measuring the highest fluorescence intensity (FC, fluorescence counts) over time.
The FLIPR protocol comprises 2 additions of substance. The compounds to be tested (10 μM) are firstly pipetted onto the cells and Ca^2+ influx is compared with the control (capsaicin 10 μM). This provides the percentage activation relative to the Ca^2+ signal after addition of 10 μM of capsaicin (CP). After 5 minutes' incubation, 100 nM of capsaicin are added and the influx of Ca^2+ is again determined.
Desensitising agonists and antagonists result in suppression of Ca^2+ influx. The percentage inhibition in comparison with the maximum achievable inhibition with 10 μM capsaicin is calculated.
Triplicate determinations (n═3) are performed and these are repeated in at least 3 independent experiments […].

Assay [2] concerns the target T2, vanilloid receptor (VR1) (Homo sapiens, UniProt Q8NER1).
T2 construct: expressed in transfected cells; host or cells: CHO K1 cells (ECACC), stably transfected
Nature of the assay: FLIPR Ca2+ influx assay on CHO K1 cells transfected with the VR1 gene (pharmacological method II). Particulars: for inhibition in percent, Ki (human) Cap.: @ 10 μM.

The target of assay [3] is VR1/TRPV1 receptor (Homo sapiens, UniProt Q8NER1). Nature of the assay: IC50 (human) after pH stimulus.
The mark [4] stands for this setting: table 4, capsaicin, read-out: Ki (rat) Cap.
Setting [5] is: table 4, capsaicin, read-out: Ki (human) Cap.
The mark [6] stands for this setting: Table 2, displacement of capsaicin (100 nM), Cheng-Prusoff, read-out: Ki (rat).
Where [7] appears, read: Table 2, displacement of capsaicin (100 nM), Cheng-Prusoff, read-out: Ki (human).

Like-named read-outs stand apart in the source and are kept apart here.

As usually defined, the Ki is the equilibrium dissociation constant of an inhibitor or competing ligand from its target. One may read the IC50 as the point on the concentration scale where inhibition reaches its midpoint. A high value points to weaker potency. One may read the inhibition as how much of the control response was suppressed.

T1 sequence (O35433 whole entry): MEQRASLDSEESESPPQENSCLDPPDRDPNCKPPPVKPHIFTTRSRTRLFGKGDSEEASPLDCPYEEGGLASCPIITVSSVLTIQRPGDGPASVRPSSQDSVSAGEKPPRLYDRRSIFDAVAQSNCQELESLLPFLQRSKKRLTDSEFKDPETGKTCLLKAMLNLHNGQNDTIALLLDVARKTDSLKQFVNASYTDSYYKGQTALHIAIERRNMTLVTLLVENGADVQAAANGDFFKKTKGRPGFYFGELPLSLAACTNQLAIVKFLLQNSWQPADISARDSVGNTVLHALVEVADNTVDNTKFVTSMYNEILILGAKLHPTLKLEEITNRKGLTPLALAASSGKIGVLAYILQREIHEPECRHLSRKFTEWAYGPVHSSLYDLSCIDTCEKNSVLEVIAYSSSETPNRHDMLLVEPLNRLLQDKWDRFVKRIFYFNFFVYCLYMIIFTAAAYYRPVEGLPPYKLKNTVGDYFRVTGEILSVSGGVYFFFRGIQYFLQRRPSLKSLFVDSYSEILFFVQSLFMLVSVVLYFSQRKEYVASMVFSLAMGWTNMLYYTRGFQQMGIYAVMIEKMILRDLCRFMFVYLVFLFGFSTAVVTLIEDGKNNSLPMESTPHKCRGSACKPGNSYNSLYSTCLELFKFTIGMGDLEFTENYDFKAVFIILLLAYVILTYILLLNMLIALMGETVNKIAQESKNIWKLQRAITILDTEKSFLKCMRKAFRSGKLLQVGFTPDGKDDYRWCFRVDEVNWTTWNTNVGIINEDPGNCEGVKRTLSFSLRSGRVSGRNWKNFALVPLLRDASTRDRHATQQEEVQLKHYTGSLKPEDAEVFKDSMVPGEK
T2 sequence (Q8NER1 whole entry): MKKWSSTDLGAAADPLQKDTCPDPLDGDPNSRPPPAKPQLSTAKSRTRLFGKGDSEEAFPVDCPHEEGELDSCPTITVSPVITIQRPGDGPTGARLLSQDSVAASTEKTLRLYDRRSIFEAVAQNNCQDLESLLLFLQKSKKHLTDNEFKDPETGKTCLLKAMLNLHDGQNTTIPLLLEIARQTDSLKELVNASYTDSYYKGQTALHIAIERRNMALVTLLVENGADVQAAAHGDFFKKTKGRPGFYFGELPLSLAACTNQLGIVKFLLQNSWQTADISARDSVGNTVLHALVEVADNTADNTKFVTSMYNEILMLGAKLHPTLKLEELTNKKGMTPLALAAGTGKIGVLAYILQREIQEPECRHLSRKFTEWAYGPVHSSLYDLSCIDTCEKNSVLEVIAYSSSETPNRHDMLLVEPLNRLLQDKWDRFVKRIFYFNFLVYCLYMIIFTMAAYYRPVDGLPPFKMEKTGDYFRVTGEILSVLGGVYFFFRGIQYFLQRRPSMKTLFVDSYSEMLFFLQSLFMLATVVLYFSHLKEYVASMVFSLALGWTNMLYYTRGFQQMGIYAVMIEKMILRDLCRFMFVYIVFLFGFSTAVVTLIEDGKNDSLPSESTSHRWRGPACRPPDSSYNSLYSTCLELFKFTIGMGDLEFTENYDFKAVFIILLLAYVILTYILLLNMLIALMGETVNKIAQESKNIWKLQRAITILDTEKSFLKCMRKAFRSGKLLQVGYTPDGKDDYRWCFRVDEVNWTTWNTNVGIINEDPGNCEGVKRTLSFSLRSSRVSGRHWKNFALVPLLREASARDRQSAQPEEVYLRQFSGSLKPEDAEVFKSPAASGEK
Sequence of VR1/TRPV1 receptor (Q8NER1 whole entry): as above

With `CCCN(CCC)c1cc(C(F)(F)F)ccc1CNC(=O)C(C)c1ccc(NS(C)(=O)=O)c(F)c1` (stereo not drawn) [Example 37, N-(2-(dipropylamino)-4-(trifluoromethyl)benzyl)-2-(3-fluoro-4-(methylsulfonamido)phenyl)propanamide], the values for the inhibition constant Ki in assay [1] (setting [4]) and in assay [2] (setting [5]) were 1.8 nM and 0.3 nM, respectively. Further, it took 26.2 nM to reach half-maximal inhibition in assay [3] (table 4) (IC50).
In the same order, the values of `CCCCOc1cc(C(F)(F)F)ccc1CNC(=O)C(C)c1ccc(NS(C)(=O)=O)c(F)c1` (stereo not drawn) [Example 40, N-(2-butoxy-4-(trifluoromethyl)benzyl)-2-(3-fluoro-4-(methylsulfonamido)-phenyl)propanamide] are 0.4 nM, 1 nM and 48 nM.
In the same order, the values of `CC(C(=O)NCc1ccc(C(F)(F)F)cc1OC1CCCC1)c1ccc(NS(C)(=O)=O)c(F)c1` (stereo not drawn) [Example 42, N-(2-(cyclopentyloxy)-4-(trifluoromethyl)benzyl)-2-(3-fluoro-4-(methylsulfonamido)phenyl)propanamide] are 0.5 nM, 0.6 nM and 26 nM.
Take `CC(C(=O)NCc1ccc(C(C)(C)C)cc1N1CCCCC1)c1ccc(NS(C)(=O)=O)c(F)c1` (stereo not drawn) [Example 63, N-(4-tert-butyl-2-(piperidin-1-yl)benzyl)-2-(3-fluoro-4-(methylsulfonamido)-phenyl)propanamide]: the Ki amounted to 23.9 nM in assay [1] (setting [4]) and 28.6 nM in assay [2] (setting [5]). Besides, the inhibition at 1 µM in assay [3] (@ 1 μM, ne = no effect, read-out: inhibition in percent, IC50 (human) after pH stimulus) stood at 70%.
Regarding `CC(C(=O)NCc1ccc(C(C)(C)C)cc1C#N)c1ccc(NS(C)(=O)=O)c(F)c1` (stereo not drawn) [Example 70, N-(4-tert-butyl-2-cyanobenzyl)-2-(3-fluoro-4-(methylsulfonamido)-phenyl)propanamide], the results for the Ki in assay [1] (setting [6]) and in assay [2] (setting [7]) were 9 nM and 15.5 nM, respectively. This compound showed a half-maximal inhibitory concentration (IC50) in assay [3] (Table 2) of 1490 nM.
For `C[C@H](C(=O)NCc1ccc(C(F)(F)F)nc1N1CCOCC1)c1ccc(NS(C)(=O)=O)c(F)c1` [Example 72, (S)-2-(3-Fluor-4-(methylsulfonamido)phenyl)-N-((2-morpholino-6-(trifluoromethyl)pyridin-3-yl)methyl)propanamide], the figures for the Ki in assay [1] (setting [6]) and in assay [2] (setting [7]) were 124 nM and 32.6 nM, respectively. Moreover, in assay [3] (Table 2), the IC50 came to 1660 nM.
The like results for `CC(C(=O)NCc1ccc(C(F)(F)F)nc1N1CCN(Cc2ccccc2)CC1)c1ccc(NS(C)(=O)=O)c(F)c1` (stereo not drawn) [Example 73, N-((2-(4-benzylpiperazin-1-yl)-6-(trifluoromethyl)pyridin-3-yl)methyl)-2-(3-fluoro-4-(methylsulfonamido)phenyl)propanamide] were, in that order, 6.6 nM, 8.8 nM and 634 nM.
As to `CC(C(=O)NCc1ccc(C(F)(F)F)nc1N1CCNCC1)c1ccc(NS(C)(=O)=O)c(F)c1` (stereo not drawn) [Example 74], the “inhibition in percent, Ki (rat) Cap.” value in assay [1] was determined as 70% @ 10 μM. Further, the “inhibition in percent, Ki (human) Cap.” value in assay [2] was found to be 71% @ 10 μM. In assay [3] (@ 10 μM), the “inhibition in percent, IC50 (human) after pH stimulus” value was determined as 35% @ 10 μM.
Regarding `CC(C(=O)NCc1ccc(C(F)(F)F)cc1Cl)c1ccc(NS(C)(=O)=O)c(F)c1` (stereo not drawn) [Example 75, N-(2-chloro-4-(trifluoromethyl)benzyl)-2-(3-fluoro-4-(methylsulfonamido)phenyl)propanamide], the Ki came out at 12.9 nM in assay [1] (setting [6]) and 4 nM in assay [2] (setting [7]). In assay [3] (Table 2), this compound showed a half-inhibitory concentration (IC50) of 1210 nM.
`CC(C(=O)NCc1ncc(C(F)(F)F)cc1Cl)c1ccc(NS(C)(=O)=O)c(F)c1` (stereo not drawn) [Example 77]: the “inhibition in percent, Ki (rat) Cap.” value in assay [1] was 57% @ 10 μM. Moreover, in assay [2], the “inhibition in percent, Ki (human) Cap.” value was determined as 21% @ 10 μM. Moreover, the “inhibition in percent, IC50 (human) after pH stimulus” value in assay [3] (@ 1 μM, ne = no effect) is given as “ne @ 1 μM”.
For the compound `CC1CC(C)CN(c2nc(C(F)(F)F)ccc2CNC(=O)C(C)c2ccc(NS(C)(=O)=O)c(F)c2)C1` (stereo not drawn) [Example 79, 2-(3-fluoro-4-methylsulfonamido-phenyl)-N-(2-3,5 dimethylpiperidin-1-yl-6-trifluoromethyl-pyridin-3-ylmethyl)-propionamide], the inhibitory constant (Ki) in assay [1] (setting [4]) came out at 0.8 nM; in assay [2] (setting [5]), 0.7 nM. Besides, the IC50 in assay [3] (table 4) stood at 25.6 nM.
The like results for `CC(C(=O)NCc1ccc(C(F)(F)F)nc1N(C)C)c1ccc(NS(C)(=O)=O)c(F)c1` (stereo not drawn) [Example 85, N-(2-dimethylamino-6-trifluoromethyl-pyridin-3-ylmethyl)-2-(3-fluoro-4-methylsulfonamido-phenyl)-propionamide] were, in that order, 67.9 nM, 19.1 nM and 2390 nM.
Regarding `CC(C)COc1nc(C(F)(F)F)ccc1CNC(=O)C(C)c1ccc(NS(C)(=O)=O)c(F)c1` (stereo not drawn) [Example 95, 2-(3-fluoro-4-methylsulfonamido-phenyl)-N-(2-isobutoxy-6-trifluoromethyl-pyridin-3-ylmethyl)-propionamide], the Ki in assay [1] (setting [4]) stood at 0.8 nM; in assay [2] (setting [5]), 0.5 nM. Moreover, half-maximal inhibition in assay [3] (table 4) (IC50) was put at 52.6 nM.
Turning to `CC(C(=O)NCc1ccc(C(F)(F)F)nc1OCC1CCC1)c1ccc(NS(C)(=O)=O)c(F)c1` (stereo not drawn) [Example 101, N-(2-cyclobutylmethoxy-6-trifluoromethyl-pyridin-3-ylmethyl)-2-(3-fluoro-4-methylsulfonamido-phenyl)-propionamide], the Ki in assay [1] (Ki (rat) Cap., table 4, capsaicin) amounted to 1 nM; in assay [2] (setting [5]) it was 0.3 nM. In assay [3] (table 4), the midpoint of inhibition, the IC50, lay at 40.5 nM.
With `CC(C(=O)NCc1ccc(C(F)(F)F)nc1N1CCCC1)c1ccc(NS(C)(=O)=O)c(Cl)c1` (stereo not drawn) [Example 102, 2-(3-chloro-4-methylsulfonamido-phenyl)-N-(2-pyrrolidin-1-yl-6 trifluoromethyl-pyridin-3-ylmethyl)-propionamide], the Ki in assay [1] (setting [4]) is 7.4 nM; in assay [2] (setting [5]), 4.2 nM. The inhibition at 10 µM in assay [3] (@ 10 μM, read-out: inhibition in percent, IC50 (human) after pH stimulus) was 18%.
In the case of `CC(C(=O)NCc1ccc(C(F)(F)F)nc1N1CCN(c2ccccc2)CC1)c1ccc(NS(C)(=O)=O)c(F)c1` (stereo not drawn) [Example 109, 2-(3-fluoro-4-methylsulfonamido-phenyl)-N-[2-(4-phenyl-piperazin-1-yl)-6-trifluoromethyl-pyridin-3-ylmethyl]-propionamide], the Ki is 0.6 nM in assay [1] (setting [4]) and 0.7 nM in assay [2] (setting [5]). Moreover, in assay [3] (table 4), it took 30.7 nM to reach half-maximal inhibition (IC50).
In the same order, the values of `CCCOc1nc(C(F)(F)F)ccc1CNC(=O)C(C)c1ccc(NS(C)(=O)=O)c(F)c1` (stereo not drawn) [Example 111, 2-(3-fluoro-4-methylsulfonamido-phenyl)-N-(2-propoxy-6-trifluoromethyl-pyridin-3-ylmethyl)-propionamide] are 3.5 nM, 0.9 nM and 90.1 nM.
The like results for `CC(C(=O)NCc1ccc(C(F)(F)F)cc1F)c1ccc(NS(C)(=O)=O)c(F)c1` (stereo not drawn) [Example 114, 2-(3-fluoro-4-methylsulfonamido-phenyl)-N-(2-fluoro-4-trifluoromethyl-benzyl)-propionamide] were, in that order, 28.1 nM, 68.7 nM and 2360 nM.
On to `CC(C(=O)NCc1ccc(C(F)(F)F)nc1NCc1ccccc1)c1ccc(NS(C)(=O)=O)c(F)c1` (stereo not drawn) [Example 115, N-(2-benzylamino-6-trifluoromethyl-pyridin-3-ylmethyl)-2-(3-fluoro-4-methylsulfonamido-phenyl)-propionamide], for which the inhibitory constant (Ki) turned out to be 10.9 nM in assay [1] (setting [4]) and 15.8 nM in assay [2] (setting [5]). Inhibition in assay [3] (table 4) was half-maximal at 203 nM (IC50).
Regarding `CC(C(=O)NCc1ccc(C(F)(F)F)nc1-c1ccc(F)c(Cl)c1)c1ccc(NS(C)(=O)=O)c(F)c1` (stereo not drawn) [Example 118], the Ki in assay [1] (setting [4]) and in assay [2] (setting [5]) was 0.2 nM in each case. Moreover, in assay [3] (table 4), half-maximal inhibition (IC50) was put at 7.6 nM.
